Measured values: US20100062012A1, “Negative Genetic Regulation of Cancer Cell Renewal in Synergy with Notch- or Numb-Specific Immunotherapy” (priority 2007, published 2010)
Marks after values point to notes of the source that are not given here.

Assays:
[1] = system: MCF7; experiment: MTT inhibition of proliferation; type: cell-based; details: Homo sapiens, 72 h
From the text: (§1) Inhibition of proliferation of tumor cell lines by anticancer drugs.

[2] = system: MIA-PaCa-2; experiment: MTT inhibition of proliferation; type: cell-based; details: Homo sapiens; MIA-PaCa-2, MTT, 72 h
From the text: as §1

[3] = system: PANC-1; experiment: MTT inhibition of proliferation; type: cell-based; details: Homo sapiens; PANC-1, MTT, 72 h
From the text: as §1

[4] = system: AsPC-1; experiment: MTT inhibition of proliferation; type: cell-based, human; details: Homo sapiens, ASPC1, 72 h, AsPC-1, MTT, 72 h
From the text: as §1

[5] = system: SKOV-3; experiment: MTT inhibition of proliferation; type: cell-based, human; details: Homo sapiens, SK-OV-3, 72 h, SKOV-3, MTT
From the text: as §1

[6] = system: MCF7; experiment: Flow cytometry of CSt-C markers after culture with drugs; type: cell-based, human
Description: (§2) Flow cytometery analysis. All cells were cultured with Gem at 2×IC50 of gemcitabine for 10 days. Cultured cells (2×10^5) were washed in cold-PBS followed by blocking with 20 μL of 1 mg/mL of human IgG (Sigma, Saint Louis, Mo.) for 1 hour on ice. This step was necessary to inhibit non-specific binding of immunoglobulins during staining. Cells were then triple-stained with antibodies against ESA, CD44, and CD24. Analysis was performed with Becton Dickinson FACSCalibur and Cell Quest software (Becton Dickinson). Cells were gated on ESA+ population. Expression of CD24 and CD44 was examined in gated ESA+ cells as we described (26). The population of the ESA+, CD44hi and CD24low/− cells was calculated as percent of total cells and total ESA+ cells. All cell lines were also stained with a MIC-A/B and CD133, and analyzed as above.

[7] = system: MIA-PaCa-2; experiment: as above; type: cell-based, human
Description: as §2

[8] = system: MIA-PaCa-2; experiment: Flow cytometry of NKG2D ligands MIC-A/B in drug-resistant cells; type: cell-based, human; details: MIA PaCa-2, FIG. 7A
Description: as §2
To address the hypothesis that drug-resistant cancer cells are more sensitive to cellular immune effectors, we quantified expression of NKG2D ligands, MIC-A and -B (58, 59). ESA^+ MIA-PaCa-2 cells were analyzed for MIC-A/B. MCF7 cells were analyzed with CD44, CD24 and MIC-A/B (FIG. 7B), because almost all MCF7 cells (95% and more) expressed ESA.

[9] = system: MIA-PaCa-2; experiment: Flow cytometry of CSt-C markers after culture with drugs; type: cell-based, human; details: starting from 3.0×10^6 Mia-PaCa-2 cells
[10] = system: MCF7 cells; experiment: Stimulation of MCF7 / GEMRes MCF7 by DLL4; type: cell-based, human
Description: Stimulation of GEMRes MCF7 by DLL4. GEMRes MCF7 were obtained after culture with 0.3 uM GEM for 7 weeks. MCF7 were stimulated for 24 hrs, in medium containing estradiol, fibroblast growth factor in the presence or absence of DLL4, as described (40).

[11] = system: CD8+ T cells (TAL) from ascites of HLA-A2+ ovarian cancer patients; experiment: peptide-HLA-A2-IgG dimer staining of ovarian tumor associated lymphocytes (flow cytometry); type: cell-based, human; details: for patients with activated CD8+ Perforin+ cells expressing TCR specific for the peptide: five ovarian cancer patients
From the text: Lymphocyte culture. Lymphocytes were isolated by Ficoll-gradient centrifugation from heparinized ascites from HLA-A2^+ ovarian cancer patients. After separation, we cultured lymphocytes with RPMI 1640 medium with 10% FCS and 300 IU of IL-2 (Biosource Camarillo, Calif.) for one week, as we described (23,24).
We identified cells expressing high concentrations/numbers of T cell receptors (TCRs) reactive with each peptide to evaluate the role of TCR density in CTL differentiation upon in vivo stimulation with the same ligands. The TCR^+ population which usually includes cells staining with antigen-tetramers/dimers with a mean fluorescence intensity (MFI) higher than 101, was divided in three populations, one staining with antigen-pulsed HLA-A2/IgG dimers (dimers) with a MFI (TCR) between 101 and 102, and other which stained with antigen-pulsed dimers with a MFI (TCR) between 102 and 103, and other which stained with antigen-pulsed dimers with a MFI (TCR) between 103 and 104. These populations were designated as TCR^lo, TCRmed, and […], respectively, as we described (26).
T cell: peptide-HLA-A2-lgG dimer interaction. Expression of TCRs specific for peptides Notch1 (1940-1948), Notch1 (2112-2120), Numb1 (87-95), Gli1 (580-588) and AESI (128-137) was determined using HLA-A2-IgG-dimmers (BD Bioscience Pharmingen). The peptide loaded dimers were prepared as we previously described (23). Staining of lymphocyte with dimers was performed as described previously (24,27,28).
The same cells were also stained for the expression of CD8 antigen and the presence of Perforin, (effector pore forming enzyme) using specific antibodies conjugated to distinct fluorochromes than the dimers: fluorescein isothiocianate (FITC), allophycocyanin (APC) and PE. Cells reacting with the corresponding peptide-loaded dimers are designated as Notch1-1940-TCR^+, Notch1-2112-TCR^+, Numb1-87-TCR^+, and […] cells, respectively. Cells reacted with control HLA-A2-IgG dimers not loaded with peptide are designated as dNP-TCR^+ cells.

[12] = molecular target: Notch receptor on MCF7 cells (human); experiment: cell-based or functional assay
[13] = MIA-PaCa-2 after culture with drug
[14] = Patient 1, TCR-density High, TAL one week in 300 IU IL-2

Chain of recombinant human Delta-like protein 4 (Q9NR61 27-524 limits assumed, stated change not applied): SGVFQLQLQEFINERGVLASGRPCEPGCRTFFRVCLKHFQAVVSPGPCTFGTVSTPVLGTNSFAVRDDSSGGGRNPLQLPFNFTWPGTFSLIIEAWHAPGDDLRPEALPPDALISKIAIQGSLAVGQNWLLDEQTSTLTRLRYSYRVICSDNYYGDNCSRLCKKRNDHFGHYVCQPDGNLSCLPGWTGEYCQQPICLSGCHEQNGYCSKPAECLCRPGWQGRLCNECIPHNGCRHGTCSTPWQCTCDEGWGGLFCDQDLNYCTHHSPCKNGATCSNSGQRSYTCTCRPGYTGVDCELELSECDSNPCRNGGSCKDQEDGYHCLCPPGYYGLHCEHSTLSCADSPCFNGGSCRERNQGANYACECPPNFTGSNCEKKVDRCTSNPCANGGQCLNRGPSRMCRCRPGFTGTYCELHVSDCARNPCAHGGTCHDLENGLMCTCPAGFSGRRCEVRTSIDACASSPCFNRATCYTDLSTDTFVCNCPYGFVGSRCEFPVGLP

Compound | % TCR+ cells for HLA-A2: peptide [11, 14] | % TCR+ cells for HLA-A2: peptide ([11]; Patient 1, TCR-density Low) [%] | % TCR+ cells for HLA-A2: peptide ([11]; Patient 1, TCR-density Med) | % TCR+ cells for HLA-A2: peptide ([11]; Patient 2, TCR-density High) [%] | % TCR+ cells for HLA-A2: peptide ([11]; Patient 2, TCR-density Low) | % TCR+ cells for HLA-A2: peptide ([11]; Patient 2, TCR-density Med) [%] | % TCR+ cells for HLA-A2: peptide ([11]; Patient 3, TCR-density High) [%] | % TCR+ cells for HLA-A2: peptide ([11]; Patient 3, TCR-density Low) [%] | % TCR+ cells for HLA-A2: peptide ([11]; Patient 3, TCR-density Med) [%] | % TCR+ cells for HLA-A2: peptide ([11]; Patient 4, TCR-density High) [%] | % TCR+ cells for HLA-A2: peptide ([11]; Patient 4, TCR-density Low) [%] | % TCR+ cells for HLA-A2: peptide ([11]; Patient 4, TCR-density Med) | % TCR+ cells for HLA-A2: peptide ([11]; Patient 5, TCR-density High) | % TCR+ cells for HLA-A2: peptide ([11]; Patient 5, TCR-density Low) [%] | % TCR+ cells for HLA-A2: peptide ([11]; Patient 5, TCR-density Med) [%] | other results
O=c1[nH]cc(F)c(=O)[nH]1 [5-FU, 5-fluorouracil] | – | – | – | – | – | – | – | – | – | – | – | – | – | – | – | IC50 [1]: 1300 nM; IC50 [2]: 3.7 µM; IC50 [3]: 800 nM; IC50 [4]: 15.2 µM; IC50 [5]: 3.6 µM; change of CSt-like-C population ([6]; MCF7): increased; cells harvested ([6]; after culture of 3×10^6 MCF-7 cells): 1.6 ×10^6; change of CSt-C (CSt-like-C) population ([7]; MIA-PaCa-2): increased; % CD44hi CD24- in ESA+ cells [7, 13]: 0.2%; % CD44hi CD24hi in ESA+ cells [7, 13]: 7.1%; % CD44hi CD24low in ESA+ cells [7, 13]: 19.8%; % CSt-like-C [7, 13]: 16.4%; % ESA+ [7, 13]: 83.0%; number of cells expressing MICA and MICB in drug-resistant cells [8]: increased; cells harvested [9]: 3.4 ×10^6 cells
DLL4: recombinant human Delta-like protein 4, soluble Notch ligand | – | – | – | – | – | – | – | – | – | – | – | – | – | – | – | expansion of CD44+ CD24low cells compared with medium ([10]; DLL4-activation of GEMRes cells): 2-3 fold; CD44hi CD24hi (% of cells) ([10]; MCF7): 36.4%; CD44hi CD24hi (cell number) ([10]; MCF7): 6.84; CD44hi CD24low (% of cells) ([10]; MCF7): (3.5%); CD44hi CD24low (cell number) ([10]; MCF7): 0.66 × 10^6; ratio CD44hi CD24hi to CD44hi CD24low ([10]; MCF7): 10.4; Stimulation Index ([10]; MCF7, harvested/seeded): 6.27; Harvested cells ([10]; MCF7, seeded 3.0 x 10^6): *18.80 10^6
LPL TPLPVGL [AES1] | 0.19% | 0.23 | 0.23% | – | – | – | – | – | – | – | – | – | – | – | – | –
RLLDEYNLV (listed as Homo sapiens) [Notch1-2112] | 0.26% | 0.24 | 0.28% | 0.17 | 2.09* % | 0.35 | 0.08 | 0.43 | 0.28 | 0.08 | 0.88 | 0.34* % | 0.17% | 2.52 | 0.36 | TCRmed cells relative to base-line NP dimers ([11]; Patient 4): 2.61 times; TCRmed cells relative to base-line control dNP ([11]; Patient 5): 1.63 times; patients with activated CD8+ Perforin+ cells expressing TCR specific for the peptide [11]: two of five
RLLEASADA (listed as Homo sapiens) [Notch1-1947, used as specificity control] | – | – | – | 0.10 | 0.99% | 0.32 | 0.10 | 0.65 | 0.24 | 0.22 | 0.53 | 0.26% | 0.14% | 1.98 | 0.26 | –
VLWVSADGL (listed as Homo sapiens) [Numb1-87] | 0.64* % | 0.51 | 0.66* % | 0.16 | 2.76* % | 0.46 | 0.09 | 0.50 | 0.21 | 0.22 | 0.53 | 0.26% | 0.27* % | 1.84 | 0.27 | TCRhi CD8+ cells relative to cells reactive with control dNP dimers ([11]; Patient 5): 2.45 times; increase in numbers of TCRhi Perhi cells compared with Notch1-2112 dimer ([11]; TAL-1, FIG. 4): 3.3 fold; amount of Perforin in peptide-TCR+ cells ([11]; TAL-1, FIG. 4G): highest amount of Perforin; increase in numbers of TCR+ cells ([11]; TAL-2, large-size lymphocytes, FIG. 5H): 3 fold; patients with activated CD8+ Perforin+ cells expressing TCR specific for the peptide [11]: three of five
recombinant human Delta-like protein 4 (from UniProt Q9NR61 27-524) (ligand) | – | – | – | – | – | – | – | – | – | – | – | – | – | – | – | Harvested cells: 10^6 (MCF7, DLL4, no GEM; NT control 12.96) [12]: 1.88e+07 cells; Harvested cells: 10^6 (MCF7, DLL4 with GEM; GEM alone 1.32) [12]: 2.16e+06 cells; Stimulation Index (proliferation of MCF7 cells, DLL4, no GEM; NT control 4.32) [12]: 6.27; Stimulation Index (proliferation of MCF7 cells, DLL4 with GEM; GEM alone 0.44) [12]: 0.72; increase in total cell number at stimulation with DLL4 [12]: > 45%
